For test [1], the system named is p63 gene expression. Briefly: qPCR p63 gene expression in psoriatic tissue model. The note with it: for Downregulation of p63 gene: 2× or 4× repeat applications. In kind it is cell-based, human. An excerpt: (§1) The psoriasis tissue model (SOR-300-FT; MatTek Corp., Ashland, Mass.) is a highly differentiated in vitro psoriatic tissue comprised of normal, human-derived keratinocytes and psoriatic fibroblasts which have been cultured to form a highly differentiated model of psoriatic tissue. Morphologically, the psoriatic tissue is of uniform thickness and is very similar to native psoriatic tissue in that it expresses increased levels of Ki67+ cells (hyperproliferation) and psoriasis-associated proteins such as psoriasin, elafin and human beta-defensin-2 (HBD-2) (Am. J. Pathol. 173:815-23, 2008). SOR-300-FT tissues (surface area=0.6 cm^2) were cultured on microporous membrane (pore size=0.4 μm) cell culture inserts. All psoriatic tissues were grown at the air liquid interface (ALI) in which the apical tissue layer is exposed to air. Use of the ALI induces the tissues to attain skin-like differentiation and allows direct topical application of test materials (similar to in vivo exposure).
(§2) Calcipotriol at 2.5, 0.25 and 0.025 μg/ml in medium was used as positive control. Ultrapure water was used as the vehicle control. The test article Compound C was applied to the basolateral (by additions to the culture medium) and apical (50 μl) side of the tissues. The effect of each three concentrations of the test article on tissue structure was examined using H&E stained histological slides. For gene analysis, RNA was isolated using standard RNA isolation protocol (MatTek Corporation). Isolated RNA was quantified and the integrity of the isolated RNA was checked. Quantitative RT-PCR was performed to determine expression levels of 5 psoriatic associated genes (elafin, HBD-2, psoriasin, p63, and Ki67).
(§3) SOR-300-FT™ tissues were transferred to 6-well plates containing 0.9 ml of pre-warmed assay medium and equilibrated to standard culture conditions (37° C., 5% CO2) for 1 hour. After the 1 hr equilibration, the tissues were re-fed with fresh medium as follow: 1) for the 24 hr time point, tissues were feed with 0.9 ml of medium and 2) for time points >24 hr, tissues were fed with 5 ml of culture medium by placing the cell culture inserts on top of the washers (Part # EPI-WSHR, MatTek Corporation). Next, 50 μl of the test article was applied topically to the psoriatic tissues (n=3) and the test article was added to the culture medium at concentrations of 100 μM, 30 μM, and 5 μM. At times 48 and 72 hours: a) the tissues were rinsed topically 3× with 300-400 μL of PBS, b) the inserts containing the tissues were held tightly with sterile forceps and the test article was rinsed gently by immersing the insert into PBS and decant medium from insert and c) fresh test article was re-applied to the tissue immediately after rinsing and decanting (50 μl, topically). Analysis was performed at t=48 hr (2× repeat applications) and t=96 hr (4× applications).
(§4) After t=48 (2× repeat exposure) and t=96 hr (4× exposure), N=3 tissues/treatment were used for RNA isolation for biomarker identification (gene expression levels). After the t=48 and t=96 hr, N=1 tissue/treatment was fixed in 10% formalin for histological analysis.
(§5) RNA Isolation: RNA was isolated from the tissues following MatTek's standardized RNA isolation protocol. The concentration, integrity, and purity of RNA was assessed using Experion System (Bio-Rad).
(§6) qPCR: cDNA was generated using the RT2 First Strand Kit (Qiagen, cat#330401). Relative gene expression was measured using RT2 SYBR Green qPCR Mastermix (Qiagen, cat#330502) and Qiagen RT2 primers. Analysis was carried out using Bio-Rad CFX software.
(§7) qPCR was performed to quantify the relative gene expression levels of 5 psoriatic associated gene biomarkers: 1) human beta defensin 2 (HBD-2), 2) psoriasin, 3) elafin and 4) p63, and 5) Ki67.

The test system of test [2] is psoriasin gene expression. Briefly: qPCR psoriasin gene expression in psoriatic tissue model. In kind it is cell-based, human.
Description: as §1, §2, §3, §4, §5, §6, §7
A general note: In qPCR the cycle at which signal appears reflects the starting amount.

For test [3], the system named is Ki67 gene expression. Briefly: qPCR Ki67 gene expression in psoriatic tissue model. In kind it is cell-based, human. The note with it: for Downregulation of Ki67 gene: 2× or 4× repeat applications.
Description: as §1, §2
as §3, with “applications). […]” for “applications).”
as §5
qPCR: cDNA was generated using the RT2 First Strand Kit (Qiagen, cat#330401). Relative gene expression was measured using RT2 SYBR Green qPCR Mastermix (Qiagen, cat#330502) and Qiagen RT2 primers. […]
as §7

The test system of test [4] is psoriasis tissue model (SOR-300-FT). The test is described as follows: Tissue structure (H&E histology) of psoriasis tissue model. In kind it is cell-based, human.
Description: as §1, §2, §3, §4
Microscopic observations of histology samples were performed and effect of treatment on tissue morphology such as apical surface disruption, structural changes, and abnormal tissue staining was assessed.

The subject of test [5] is elafin gene expression. Briefly: qPCR elafin gene expression in psoriatic tissue model. In kind it is cell-based, human.
Description: as §1, §2, §3, §4, §5, §6, §7

The subject of test [6] is human beta defensin 2 (HBD-2) gene expression. The test is described as follows: qPCR HBD-2 gene expression in psoriatic tissue model. It is filed as cell-based.
Description: as §1, §2, §3, §4, §5, §6, §7

Where [7] appears, read: 0.25 ug/ml, 2× application, 48 hr.
The mark [8] stands for this setting: 2.5 μg/ml, 2× repeat applications.
The mark [9] stands for this setting: 2.5 μg/ml, 4× repeat applications.
[10] abbreviates: 0.025 ug/ml, 2× repeat applications.
Setting [11] is: 0.025 ug/ml, 4× repeat applications.

From US20150283145A1, “TREATMENT OF HYPERPROLIFERATIVE AND PRE-CANCEROUS SKIN DISEASES USING AN INHIBITOR OF CBP/CATENIN” (PRISM Pharma Co., Ltd., priority 2012, published 2015) come the findings set out here.

Some results are limits rather than exact numbers.

On to `C=C1/C(=C\C=C2/CCC[C@]3(C)[C@@H]([C@H](C)/C=C/[C@@H](O)C4CC4)CC[C@@H]23)C[C@@H](O)C[C@@H]1O` [Calcipotriol, reference compound], for which the “Downregulation of p63 gene expression” value in test [1] (setting [7]) and in test [1] (setting [8]) was at least 2 fold each time. Besides, the “Decrease of p63 gene expression” value in test [1] (setting [9]) is listed as 1.7 fold. For the same compound, in test [2] (setting [10]), the “Downregulation (≧2 fold) of psoriasin gene expression” value is given as “not after 2× repeat applications”. Also, the “Downregulation of psoriasin gene expression” value in test [2] (setting [11]) and in test [2] (setting [8]) was at least 2 fold throughout. In addition, the “Reduction of psoriasin gene expression” value in test [2] (setting [9]) is “significant reduction”. For the same compound, the “Downregulation of Ki 67 gene expression” value in test [3] (setting [8]) is recorded as at least 2 fold. Also, the “Decrease of Ki67 gene expression” value in test [3] (setting [9]) stood at 1.6 fold. In addition, the “Microscopic observation of tissue histology” value in test [4] (2.5, 0.25 and 0.025 μg/ml, 2× or 4× repeat exposures) is “minimal-to-no evidence of structural damage”. For the same compound, the “Downregulation (≧2 fold) of elafin gene expression” value in test [5] (setting [10]) is on record as “not after 2× repeat applications”. Besides, the “Downregulation of elafin gene expression” value in test [5] (setting [11]) and in test [5] (setting [8]) was at least 2 fold in each case. Also, the “Reduction of elafin gene expression” value in test [5] (setting [9]) is “significant reduction”. Further, in test [6] (setting [10]), the “Downregulation (≧2 fold) of HBD-2 gene expression” value is “not after 2× repeat applications”. Moreover, the “Downregulation of HBD-2 gene expression” value in test [6] (setting [11]) and in test [6] (setting [8]) was at least 2 fold throughout. The “Downregulation of HBD2 gene expression” value in test [6] (setting [7]) was at least 2 fold. In addition, the “Reduction of HBD-2 gene expression” value in test [6] (setting [9]) is given as “significant reduction”.

Turning to `C[C@H]1[C@H]2N(C(=O)CN(C)N2C(=O)NCc2ccccc2)[C@@H](Cc2ccc(O)cc2)C(=O)N1Cc1cccc2cccnc12` [Compound C, (6S,9S,9aS)—N-benzyl-6-(4-hydroxybenzyl)-2,9-dimethyl-4,7-dioxo-8-(quinolin-8-ylmethyl)octahydro-1H-pyrazino[2,1-c][1,2,4]triazine-1-carboxamide], the “Downregulation of p63 gene” value in test [1] (5 μM) and in test [1] (30 μM) was “did not show downregulation” throughout. In test [1] (100 μM, 2× repeat applications), the “Downregulation of the p63 gene” value stood at 1.6 fold. For the same compound, the “Downregulation of psoriasin gene expression” value is recorded as at least 2 fold in test [2] (5 μM, 4× applications, 96 hr); at least 2 fold in test [2] (30 μM, 4× applications, 96 hr); at least 2 fold in test [2] (100 μM, 4× applications, 96 hr). Also, the “Downregulation of Ki67 gene” value in test [3] (5 μM) and in test [3] (30 μM) was “did not show downregulation” each time. In addition, in test [3] (100 μM, 2× and 4× applications (FIGS. 4A-B)), the “Downregulation of Ki 67 gene expression” value is “No down regulation”. Further, the “Microscopic observation of tissue histology” value in test [4] (5 μM, 2× repeat exposures) is “minimal effect on tissue structure”; in test [4] (5 μM, 4× repeat exposures), “the parabasal-apical layer of the tissue was sloughed off”; in test [4] (30 μM, 2× repeat exposures, 48 hr), “minor structural damage”; in test [4] (30 μM, 4× exposures, 96 hr), “the suprabasal and apical layer was sloughed off”; in test [4] (100 μM, 2× or 4× repeat exposures) it was “structural damage to the differentiated cell layer”. Also, the “Basal cells and tissue regeneration (histology)” value in test [4] (5 μM, 4× repeat exposures) was “the basal cells were intact and tissue regeneration was occurring”. In addition, the “Downregulation of elafin gene expression” value in test [5] (5 μM, 4× applications, 96 hr) is reported as at least 2 fold; in test [5] (30 μM, 4× applications, 96 hr), at least 2 fold; in test [5] (100 μM, 4× applications, 96 hr), at least 2 fold. For the same compound, the “Reduction in elafin gene expression level” value in test [5] (30 μM, 48 hr (2× applications)) is recorded as 2.2 fold. For the same compound, the “Downregulation of HBD-2 gene expression” value is on record as at least 2 fold in test [6] (5 μM, 4× applications, 96 hr); at least 2 fold in test [6] (30 μM, 4× applications, 96 hr); at least 2 fold in test [6] (100 μM, 4× applications, 96 hr).
